Results taken from patent US20050143927A1, “Method for estimating or predicting the anti-tumor activity of a compound and for estimating or predicting the tumor growth in mammals” (Pharmacia Italia S.p.A., priority 2002, published 2005).

Assay: Two-compartment PK model fitted to plasma concentration of Drug-A (Experiment-A)
Conditions: for Vd: male, athymic nude, mouse, iv; for Vd / A (PK macro-constant) / Alpha (PK macro-constant) / B (PK macro-constant) / Beta (PK macro-constant): plasma
[1] = dose 20 mg/kg iv-bolus q4dx3, mean of four mice
[2] = dose 30 mg/kg iv-bolus q4dx3, mean of four mice
[3] = dose 40 mg/kg iv-bolus q4dx3, mean of four mice
[4] = mouse 0, 20 mg/kg iv-bolus q4dx3
[5] = mouse 26, 40 mg/kg iv-bolus q4dx3
[6] = mouse 28, 30 mg/kg iv-bolus q4dx3
[7] = mouse 31, 20 mg/kg iv-bolus q4dx3
[8] = mouse 55, 20 mg/kg iv-bolus q4dx3
[9] = mouse 59, 30 mg/kg iv-bolus q4dx3
[10] = mouse 64, 30 mg/kg iv-bolus q4dx3
[11] = mouse 69, 20 mg/kg iv-bolus q4dx3
[12] = mouse 78, 40 mg/kg iv-bolus q4dx3
[13] = mouse 80, 40 mg/kg iv-bolus q4dx3
[14] = mouse 81, 40 mg/kg iv-bolus q4dx3
[15] = mouse 88, 30 mg/kg iv-bolus q4dx3

Compound: CC(=O)O[C@H]1C(=O)[C@@]2(C)[C@H]([C@H](OC(=O)c3ccccc3)[C@]3(O)C[C@H](OC(=O)[C@H](O)[C@@H](NC(=O)c4ccccc4)c4ccccc4)C(C)=C1C3(C)C)[C@]1(OC(C)=O)CO[C@@H]1C[C@@H]2O [Drug-A, paclitaxel]
- A (PK macro-constant), mean [1]: 34294.5621
- B (PK macro-constant), mean [1]: 3467.5180
- K10, mean [1]: 41.0979 day⁻¹
- K12, mean [1]: 16.4430 day⁻¹
- K21, mean [1]: 12.4026 day⁻¹
- α (PK macro-constant), mean [1]: 62.0545
- β (PK macro-constant), mean [1]: 7.8890
- A (PK macro-constant), mean [2]: 56632.6519
- B (PK macro-constant), mean [2]: 759.8587
- K10, mean [2]: 20.8063 day⁻¹
- K12, mean [2]: 2.2085 day⁻¹
- K21, mean [2]: 3.4809 day⁻¹
- α (PK macro-constant), mean [2]: 23.2801
- β (PK macro-constant), mean [2]: 3.2157
- A (PK macro-constant), mean [3]: 62064.8954
- B (PK macro-constant), mean [3]: 7999.4363
- K10, mean [3]: 20.0530 day⁻¹
- K12, mean [3]: 9.5544 day⁻¹
- K21, mean [3]: 6.2425 day⁻¹
- α (PK macro-constant), mean [3]: 32.9706
- β (PK macro-constant), mean [3]: 2.8793
- Vd (20 mg/kg, Vd (apparent volume of distribution of the central compartment), mouse 0, 20 mg/kg iv-bolus q4dx3): 9.51 L/kg
- Vd (20 mg/kg, Vd (apparent volume of distribution of the central compartment), mouse 31, 20 mg/kg iv-bolus q4dx3): 1.34 L/kg
- Vd (20 mg/kg, Vd (apparent volume of distribution of the central compartment), mouse 55, 20 mg/kg iv-bolus q4dx3): 0.719 L/kg
- Vd (20 mg/kg, Vd (apparent volume of distribution of the central compartment), mouse 69, 20 mg/kg iv-bolus q4dx3): 0.188 L/kg
- Vd (20 mg/kg, Vd, mean, dose 20 mg/kg iv-bolus q4dx3, mean of four mice): 2.94 L/kg
- Vd (30 mg/kg, Vd (apparent volume of distribution of the central compartment), mouse 28, 30 mg/kg iv-bolus q4dx3): 0.528 L/kg
- Vd (30 mg/kg, Vd (apparent volume of distribution of the central compartment), mouse 59, 30 mg/kg iv-bolus q4dx3): 0.373 L/kg
- Vd (30 mg/kg, Vd (apparent volume of distribution of the central compartment), mouse 64, 30 mg/kg iv-bolus q4dx3): 0.745 L/kg
- Vd (30 mg/kg, Vd (apparent volume of distribution of the central compartment), mouse 88, 30 mg/kg iv-bolus q4dx3): 0.578 L/kg
- Vd (30 mg/kg, Vd, mean, dose 30 mg/kg iv-bolus q4dx3, mean of four mice): 0.556 L/kg
- Vd (40 mg/kg, Vd (apparent volume of distribution of the central compartment), mouse 26, 40 mg/kg iv-bolus q4dx3): 5.07 L/kg
- Vd (40 mg/kg, Vd (apparent volume of distribution of the central compartment), mouse 78, 40 mg/kg iv-bolus q4dx3): 1.87 L/kg
- Vd (40 mg/kg, Vd (apparent volume of distribution of the central compartment), mouse 80, 40 mg/kg iv-bolus q4dx3): 0.234 L/kg
- Vd (40 mg/kg, Vd (apparent volume of distribution of the central compartment), mouse 81, 40 mg/kg iv-bolus q4dx3): 0.502 L/kg
- Vd (40 mg/kg, Vd, mean, dose 40 mg/kg iv-bolus q4dx3, mean of four mice): 1.92 L/kg
- K10 (constant rate of the elimination process) [4]: 25.15 day⁻¹
- K12 (interchange constant rate) [4]: 15.64 day⁻¹
- K21 (interchange constant rate) [4]: 5.819 day⁻¹
- A (PK macro-constant) [4]: 1975
- Alpha (PK macro-constant) [4]: 43.22
- B (PK macro-constant) [4]: 128.5
- Beta (PK macro-constant) [4]: 3.386
- K10 (constant rate of the elimination process) [5]: 14.22 day⁻¹
- K12 (interchange constant rate) [5]: 1.663 day⁻¹
- K21 (interchange constant rate) [5]: 3.76 day⁻¹
- A (PK macro-constant) [5]: 7586
- Alpha (PK macro-constant) [5]: 16.38
- B (PK macro-constant) [5]: 297.8
- Beta (PK macro-constant) [5]: 3.265
- K10 (constant rate of the elimination process) [6]: 20.98 day⁻¹
- K12 (interchange constant rate) [6]: 1.774 day⁻¹
- K21 (interchange constant rate) [6]: 6.257 day⁻¹
- A (PK macro-constant) [6]: 54798.379413
- Alpha (PK macro-constant) [6]: 23.4
- B (PK macro-constant) [6]: 2069
- Beta (PK macro-constant) [6]: 5.61
- K10 (constant rate of the elimination process) [7]: 22.85 day⁻¹
- K12 (interchange constant rate) [7]: 3.375 day⁻¹
- K21 (interchange constant rate) [7]: 5.126 day⁻¹
- A (PK macro-constant) [7]: 14365.650820
- Alpha (PK macro-constant) [7]: 27.02
- B (PK macro-constant) [7]: 518.5
- Beta (PK macro-constant) [7]: 4.336
- K10 (constant rate of the elimination process) [8]: 35.24 day⁻¹
- K12 (interchange constant rate) [8]: 3.303 day⁻¹
- K21 (interchange constant rate) [8]: 3.947 day⁻¹
- A (PK macro-constant) [8]: 27526.035314
- Alpha (PK macro-constant) [8]: 38.91
- B (PK macro-constant) [8]: 293.5
- Beta (PK macro-constant) [8]: 3.575
- K10 (constant rate of the elimination process) [9]: 18.65 day⁻¹
- K12 (interchange constant rate) [9]: 4.915 day⁻¹
- K21 (interchange constant rate) [9]: 0.005329 day⁻¹
- A (PK macro-constant) [9]: 80469.811028
- Alpha (PK macro-constant) [9]: 23.57
- B (PK macro-constant) [9]: 3.797
- Beta (PK macro-constant) [9]: 0.004217
- K10 (constant rate of the elimination process) [10]: 17.25 day⁻¹
- K12 (interchange constant rate) [10]: 0.5748 day⁻¹
- K21 (interchange constant rate) [10]: 3.444 day⁻¹
- A (PK macro-constant) [10]: 39912.523664
- Alpha (PK macro-constant) [10]: 17.96
- B (PK macro-constant) [10]: 374.8
- Beta (PK macro-constant) [10]: 3.308
- K10 (constant rate of the elimination process) [11]: 81.15 day⁻¹
- K12 (interchange constant rate) [11]: 43.46 day⁻¹
- K21 (interchange constant rate) [11]: 34.72 day⁻¹
- A (PK macro-constant) [11]: 93311.275568
- Alpha (PK macro-constant) [11]: 139.1
- B (PK macro-constant) [11]: 12929.572382
- Beta (PK macro-constant) [11]: 20.26
- K10 (constant rate of the elimination process) [12]: 18.81 day⁻¹
- K12 (interchange constant rate) [12]: 1.318 day⁻¹
- K21 (interchange constant rate) [12]: 0.03721 day⁻¹
- A (PK macro-constant) [12]: 21408.348297
- Alpha (PK macro-constant) [12]: 20.13
- B (PK macro-constant) [12]: 2.6
- Beta (PK macro-constant) [12]: 0.03477
- K10 (constant rate of the elimination process) [13]: 30.07 day⁻¹
- K12 (interchange constant rate) [13]: 35.07 day⁻¹
- K21 (interchange constant rate) [13]: 21.07 day⁻¹
- A (PK macro-constant) [13]: 139526.742848
- Alpha (PK macro-constant) [13]: 78.1
- B (PK macro-constant) [13]: 31692.453321
- Beta (PK macro-constant) [13]: 8.112
- K10 (constant rate of the elimination process) [14]: 17.11 day⁻¹
- K12 (interchange constant rate) [14]: 0.1688 day⁻¹
- K21 (interchange constant rate) [14]: 0.1062 day⁻¹
- A (PK macro-constant) [14]: 79738.401451
- Alpha (PK macro-constant) [14]: 17.28
- B (PK macro-constant) [14]: 4.845
- Beta (PK macro-constant) [14]: 0.1051
- K10 (constant rate of the elimination process) [15]: 26.34 day⁻¹
- K12 (interchange constant rate) [15]: 1.57 day⁻¹
- K21 (interchange constant rate) [15]: 4.217 day⁻¹
- A (PK macro-constant) [15]: 51349.893679
- Alpha (PK macro-constant) [15]: 28.19
- B (PK macro-constant) [15]: 591.6
- Beta (PK macro-constant) [15]: 3.941
